ChEMBL document CHEMBL1932970, “Facile synthesis of 1,2,3-triazole analogs of SGLT2 inhibitors by 'click chemistry'” (Bioorg Med Chem Lett, 2012)
Activity calls are given as the source filed them. No cut-off for these calls is given here.

System: Rattus norvegicus
Test: Antidiabetic activity in fasted Sprague-Dawley rat assessed as increase in urinary glucose excretion at 30 mg/kg, po administered 0.5 hrs before glucose challenge measured after 24 hrs by UV spectrophotometric analysis relative to control
Assay type: functional, organism-based
Set-up: dose 30 mg/kg
Conditions: Urine

SMILES | Activity
OC[C@H]1O[C@@H](Cc2cn(Cc3nc4ccccc4s3)nn2)[C@H](O)[C@@H](O)[C@@H]1O | Active
CCOc1ccc(Cc2cc([C@@H]3O[C@H](CO)[C@@H](O)[C@H](O)[C@H]3O)ccc2Cl)cc1 | Active
OC[C@H]1O[C@@H](Cc2cn(Cc3ccccc3Cl)nn2)[C@H](O)[C@@H](O)[C@@H]1O | Active
OC[C@H]1O[C@@H](Cc2cn(Cc3cc4ccc(Cl)cc4s3)nn2)[C@H](O)[C@@H](O)[C@@H]1O | Active
Cc1ccc(Cn2cc(C[C@@H]3O[C@H](CO)[C@@H](O)[C@H](O)[C@H]3O)nn2)cc1 | Active
OC[C@H]1O[C@@H](Cc2cn(Cc3ccc(-c4ccc(F)cc4)s3)nn2)[C@H](O)[C@@H](O)[C@@H]1O | Active
OC[C@H]1O[C@@H](Cc2cn(Cc3ccccc3)nn2)[C@H](O)[C@@H](O)[C@@H]1O | Active
O=[N+]([O-])c1ccc(Cn2cc(C[C@@H]3O[C@H](CO)[C@@H](O)[C@H](O)[C@H]3O)nn2)cc1 | Active
